Reference: US20210038559A1, “CANNABINOIDS AND DERIVATIVES FOR PROMOTING IMMUNOGENICITY OF TUMOR AND INFECTED CELLS” (priority 2018, published 2021)
Where a name gives a salt, the structure may show the parent alone.

Test system: MHC-I expression by COLO 205 cells
Assay: cells
Type: cell-based, human
Conditions: Homo sapiens, COLO 205, 48 h, MHC-I expression, COLO 205 cells, compounds at 35 μM, 48 hours, flow cytometry (W6/32); read-out: Induction Fold
Protocol: A panel of synthetic cannabinoids (Cayman Chemical, #9002891) was tested for MHC class I-inducing capability in COLO 205 cells as described above. COLO 205 cells were treated with the compounds at a concentration of 35 μM and evaluated for cell surface MHC class I expression after 48 hours. Cells were harvested, stained with MHC-I mAb W6/32 (Thermo Fisher). MHC-I expression was determined by flow cytometry.

Compared with O=C(Nc1cccc2ccccc12)c1cn(Cc2ccc(F)cc2)c2ccccc12 [Example 330, 1-(4-fluorobenzyl)-N-(naphthalen-1-yl)-1H-indole-3-carboxamide], CCC(F)CCn1cc(C(=O)Nc2cccc3ccccc23)c2ccccc21 (centres unmarked) [Example 338, 1-(3-fluoropentyl)-N-(naphthalen-1-yl)-1H-indole-3-carboxamide] is lower in fold induction at 35 µM: 1.23 for the first, 1.19 for the second.

First: CCCCCc1cc(O)cc(OCCCCCCCCCCC(=O)NC2CC2)c1 [Example 331, N-cyclopropyl-11-(3-hydroxy-5-pentylphenoxy)-undecanamide]
Second: CCCCCCC(C)(C)c1cc(O)c2c(c1)OC(C)(C)[C@H]1CC=C(CO)C[C@H]21 [Example 360, 3-(1,1-dimethylheptyl)-6aS,7,10,10aS-tetrahydro-1-hydroxy-6,6-dimethyl-6H-dibenzo[b,d]pyran-9-methanol]
The fold induction at 35 µM of the first is higher: 1.22 for the first, 0.96 for the second.

First: O=C(Oc1ccc2ccccc2c1)c1nn(-c2ccccc2F)c2ccccc12 [Example 332, naphthalen-2-yl 1-(2-fluorophenyl)-1H-indazole-3-carboxylate]
Second: CC(C)C(C)n1cc(C(=O)c2ccc3ccccc3c2)c2ccccc21 (centres unmarked) [Example 342, (1-(3-methylbutan-2-yl)-1H-indol-3-yl)(naphthalen-2-yl)methanone]
The fold induction at 35 µM of the first is higher: 1.21 for the first, 1.17 for the second.

Going from C=CCCCn1cc(C(=O)c2ccc(C)c3ccccc23)c2ccccc21 [Example 334, (4-methylnaphthalen-1-yl)(1-(pent-4-en-1-yl)-1H-indol-3-yl)methanone] to CCCC(F)Cn1cc(C(=O)c2ccc(C)c3ccccc23)c2ccccc21 (centres unmarked) [Example 359, (1-(2-fluoropentyl)-1H-indol-3-yl)(4-methylnaphthalen-1-yl)methanone], the fold induction at 35 µM falls from 1.2 to 1.

Going from CCC(F)CCn1nc(C(=O)NC(C(N)=O)C(C)C)c2ccccc21 (centres unmarked) [Example 335, N-(1-amino-3-methyl-1-oxobutan-2-yl)-1-(3-fluoropentyl)-1H-indazole-3-carboxamide] to COC(=O)[C@@H](NC(=O)c1cn(CCCCCF)c2ccccc12)C(C)C [Example 354, N-[[1-(5-fluoropentyl)-1H-indol-3-yl]carbonyl]-L-valine, methyl ester], the fold induction at 35 µM falls from 1.2 to 1.05.

First: CC(C)(C)n1cc(C(=O)c2cccc3ccccc23)c2ccccc21 [Example 336, (1-(tert-butyl)-1H-indol-3-yl)(naphthalen-1-yl)methanone]
Second: O=C(c1cccc2ccccc12)c1cn(CCCCCCF)c2ccccc12 [Example 341, (1-(6-fluorohexyl)-1H-indol-3-yl)(naphthalen-1-yl)methanone]
The fold induction at 35 µM of the first is higher: 1.2 for the first, 1.18 for the second.

Compared with O=C(Nc1ccc2ccccc2c1)c1cn(CCCCCF)c2ccccc12 [Example 337, 1-(5-fluoropentyl)-N-(naphthalen-2-yl)-1H-indole-3-carboxamide], CCCCCn1cc(C(=O)Nc2ccc3ccccc3c2)c2ccccc21 [Example 349, N-2-naphthalenyl-1-pentyl-1H-indole-3-carboxamide] is lower in fold induction at 35 µM: 1.19 for the first, 1.1 for the second.

Compared with CC(F)CCCn1cc(C(=O)Nc2cccc3ccccc23)c2ccccc21 (centres unmarked) [Example 339, 1-(4-fluoropentyl)-N-(naphthalen-1-yl)-1H-indole-3-carboxamide], CCCCCn1cc(C(=O)NC(C)(C)c2ccccc2)c2ccccc21 [Example 351, N-(1-methyl-1-phenylethyl)-1-pentyl-1H-indole-3-carboxamide] is lower in fold induction at 35 µM: 1.19 for the first, 1.07 for the second.

First: O=C(Oc1ccc2ccncc2c1)c1cn(CCCCCF)c2ccccc12 [Example 340, isoquinolin-7-yl 1-(5-fluoropentyl)-1H-indole-3-carboxylate]
Second: CC(C)(NC(=O)c1cn(CCCCCF)c2ccccc12)c1ccccc1 [Example 356, 1-(5-fluoropentyl)-N-(1-methyl-1-phenylethyl)-1H-indole-3-carboxamide]
The fold induction at 35 µM of the first is higher: 1.18 for the first, 1.03 for the second.

CC(C)[C@H](NC(=O)c1c2ccccc2nn1CC1CCCCC1)C(N)=O [Example 343, (S)-N-(1-amino-3-methyl-1-oxobutan-2-yl)-2-(cyclohexylmethyl)-2H-indazole-3-carboxamide] and CC(C)[C@H](NC(=O)c1cc(-c2ccc(F)cc2)n(CC2CCCCC2)n1)C(N)=O [Example 344, (S)-N-(1-amino-3-methyl-1-oxobutan-2-yl)-1-(cyclohexylmethyl)-5-(4-fluorophenyl)-1H-pyrazole-3-carboxamide] are the same in fold induction at 35 µM: 1.14 for the first, 1.14 for the second.

First: CC(C)(O)CCn1c(=O)n(C(=O)N[C@H](C(N)=O)C(C)(C)C)c2ccccc21 [Example 345, N-[(1S)-1-(aminocarbonyl)-2,2-dimethylpropyl]-2,3-dihydro-3-(3-hydroxy-3-methylbutyl)-2-oxo-1H-benzimidazole-1-carboxamide]
Second: O=C(NCC1CC1)c1cn(CCCCCF)c2ccccc12 [Example 357, N-(cyclopropylmethyl)-1-(5-fluoropentyl)-1H-indole-3-carboxamide]
The fold induction at 35 µM of the first is higher: 1.13 for the first, 1.03 for the second.

First: CCCCCn1cc(C(=O)c2cccc3c(OC)cccc23)c2ccccc21 [Example 346, (5-methoxynaphthalen-1-yl)(1-pentyl-1H-indol-3-yl)methanone]
Second: CCCC(C)n1cc(C(=O)c2ccc3ccccc3c2)c2ccccc21 (centres unmarked) [Example 362, naphthalen-2-yl(1-(pentan-2-yl)-1H-indol-3-yl)methanone]
The fold induction at 35 µM of the first is higher: 1.13 for the first, 0.95 for the second.

Compared with COc1ccc(N2CCNCC2)cc1 [Example 347, 1-(4-Methoxyphenyl) piperazine (hydrochloride)], CCOc1ccc(Cc2nc3cc(C(=O)N(CC)CC)ccc3n2CC2CCCCC2)cc1 [Example 363, 1-(cyclohexylmethyl)-2-[(4-ethoxyphenyl)methyl]-N,N-diethyl-1H-benzimidazole-5-carboxamide] is lower in fold induction at 35 µM: 1.12 for the first, 0.92 for the second.

Compared with CNCC(C)Cc1ccc2c(c1)OCO2 (stereo not drawn) [Example 348, N,β-dimethyl-1,3-benzodioxole-5-propanamine, monohydrochloride], CCC(C)n1cc(C(=O)c2ccc3ccccc3c2)c2ccccc21 (centres unmarked) [Example 350, (1-(sec-butyl)-1H-indol-3-yl)(naphthalen-2-yl)-methanone] is lower in fold induction at 35 µM: 1.11 for the first, 1.08 for the second.

Compound CCCCCn1cc(C(=O)NC23CC4CC(CC(C4)C2)C3)c(=O)c2cc(C(C)C)ccc21 [Example 364, 1,4-dihydro-6-(1-methylethyl)-4-oxo-1-pentyl-N-tricyclo[3.3.1.1^3, 7]dec-1-yl-3-quinolinecarboxamide] has a fold induction at 35 µM of 0.89.

Same assay, conditions: MHC-I expression, COLO 205 cells, compounds at 35 μM, 48 hours, flow cytometry (W6/32)

Compared with O=C(NC12CC3CC(CC(C3)C1)C2)c1nn(CCCCCCl)c2ccccc12 [Example 333, N-((3s,5s,7s)-adamantan-1-yl)-1-(5-chloropentyl)-1H-indazole-3-carboxamide], O=C(OC12CC3CC(CC(C3)C1)C2)c1nn(CCCCCF)c2ccccc12 [Example 358, (3s,5s,7s)-adamantan-1-yl 1-(5-fluoropentyl)-1H-indazole-3-carboxylate] is lower in “Induction Fold” value: 1.21 Fold for the first, 1.02 Fold for the second.

For CC[C@H](C)[C@H](NC(=O)c1c2ccccc2nn1CCCCCF)C(N)=O [Example 355, N-(1-amino-3S-methyl-1-oxopentan-2S-yl)-2-(5-fluoropentyl)-2H-indazole-3-carboxamide], the “Induction Fold” value was 1.05 Fold.
